# Patent US20230219978A1, “COMPOUND HAVING MACROCYCLIC STRUCTURE AND USE THEREOF” (SCINNOHUB PHARMACEUTICAL CO., LTD, priority 2020, published 2023)
# Tests used:
# Type in all cases: biochemical
# RET wt = biological target: T1, RET wt (Homo sapiens, UniProt P07949); test: In vitro kinase activity assay (mobility shift assay), RET wild type; conditions: ATP 16 μM, reaction time 60 min
# T1 construct: purchased Carna 08-159
# In short: (§1)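 Each enzyme was first exposed to test compound (top 1000 nM, 3-fold dilutions, 10 concentrations, one well each) for 10 min at room temperature. Adding ATP and peptide substrate started the reaction, which proceeded 30-240 min before stopping. Conversion was then measured and curves fitted for IC50.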
# RET G810R = biological target: T2, RET G810R (Homo sapiens, UniProt P07949, G810R); test: In vitro kinase activity assay (mobility shift assay), RET G810R; conditions: ATP 201 μM, reaction time 4 h
# T2 construct: purchased Proqinase 1724-0000-1
# T2 sequence (P07949 29-1114 G810R): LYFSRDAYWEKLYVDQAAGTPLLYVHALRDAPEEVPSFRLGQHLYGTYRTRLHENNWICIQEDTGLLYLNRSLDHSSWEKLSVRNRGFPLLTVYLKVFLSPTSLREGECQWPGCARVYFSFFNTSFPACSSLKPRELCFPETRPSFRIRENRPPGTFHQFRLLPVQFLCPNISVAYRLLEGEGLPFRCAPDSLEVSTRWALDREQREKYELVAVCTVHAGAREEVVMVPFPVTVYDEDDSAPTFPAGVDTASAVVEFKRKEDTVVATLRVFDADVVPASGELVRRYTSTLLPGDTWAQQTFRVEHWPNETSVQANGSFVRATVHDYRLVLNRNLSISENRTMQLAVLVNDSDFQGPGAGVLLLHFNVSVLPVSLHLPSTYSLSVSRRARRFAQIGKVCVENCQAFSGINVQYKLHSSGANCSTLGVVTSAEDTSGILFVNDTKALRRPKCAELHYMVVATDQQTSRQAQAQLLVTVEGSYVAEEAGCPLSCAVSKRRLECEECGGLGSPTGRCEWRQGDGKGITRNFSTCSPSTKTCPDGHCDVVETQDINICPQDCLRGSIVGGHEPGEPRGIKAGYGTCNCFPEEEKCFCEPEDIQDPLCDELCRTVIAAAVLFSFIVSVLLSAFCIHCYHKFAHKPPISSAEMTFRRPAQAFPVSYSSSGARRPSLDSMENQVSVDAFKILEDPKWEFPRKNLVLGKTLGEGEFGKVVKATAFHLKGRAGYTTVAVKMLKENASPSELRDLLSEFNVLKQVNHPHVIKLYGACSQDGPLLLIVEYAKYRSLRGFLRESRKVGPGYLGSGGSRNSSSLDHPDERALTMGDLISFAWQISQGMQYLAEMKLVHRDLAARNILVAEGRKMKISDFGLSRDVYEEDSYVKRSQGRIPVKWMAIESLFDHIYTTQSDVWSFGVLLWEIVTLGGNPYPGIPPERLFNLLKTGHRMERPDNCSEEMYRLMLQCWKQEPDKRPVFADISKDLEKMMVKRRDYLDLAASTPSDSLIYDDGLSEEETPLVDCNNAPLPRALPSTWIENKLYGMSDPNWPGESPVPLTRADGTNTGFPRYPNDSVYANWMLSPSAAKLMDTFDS
# In short: as §1
# RET V804M = biological target: T3, RET V804M (Homo sapiens, UniProt P07949, V804M); test: In vitro kinase activity assay (mobility shift assay), RET V804M; conditions: ATP 5.4 μM, reaction time 60 min
# T3 construct: purchased signalchem R02-12GG
# T3 sequence (P07949 29-1114 V804M): as the sequence (P07949 29-1114 G810R) above, with V776M, R782G counted along it
# In short: as §1
# TRKa = biological target: T4, TRKa (Homo sapiens, UniProt P04629); test: In vitro kinase activity assay (mobility shift assay), TRKa; conditions: ATP 47.8 μM, reaction time 30 min
# T4 construct: purchased Carna 08-186
# T4 sequence (P04629 33-796): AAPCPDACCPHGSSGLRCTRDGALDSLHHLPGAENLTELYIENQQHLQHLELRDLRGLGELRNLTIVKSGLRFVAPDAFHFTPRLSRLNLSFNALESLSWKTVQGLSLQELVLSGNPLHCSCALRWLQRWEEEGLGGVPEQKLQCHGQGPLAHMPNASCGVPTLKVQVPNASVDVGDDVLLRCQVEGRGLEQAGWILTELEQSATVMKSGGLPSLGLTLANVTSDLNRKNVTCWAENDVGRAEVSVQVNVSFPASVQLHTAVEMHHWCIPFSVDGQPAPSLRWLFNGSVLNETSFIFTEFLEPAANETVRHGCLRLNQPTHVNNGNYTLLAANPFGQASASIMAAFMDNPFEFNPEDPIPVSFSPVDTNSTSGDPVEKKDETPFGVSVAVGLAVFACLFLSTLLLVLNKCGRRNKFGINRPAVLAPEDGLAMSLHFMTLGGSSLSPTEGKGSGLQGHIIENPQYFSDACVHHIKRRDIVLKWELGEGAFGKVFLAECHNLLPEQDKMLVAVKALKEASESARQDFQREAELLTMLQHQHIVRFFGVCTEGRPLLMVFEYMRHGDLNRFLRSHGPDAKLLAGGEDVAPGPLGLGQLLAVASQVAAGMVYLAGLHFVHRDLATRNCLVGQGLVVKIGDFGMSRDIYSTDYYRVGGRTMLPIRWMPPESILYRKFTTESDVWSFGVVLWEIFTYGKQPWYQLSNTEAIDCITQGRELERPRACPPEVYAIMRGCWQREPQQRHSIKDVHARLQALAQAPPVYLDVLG
# In short: as §1
# SRC = biological target: T5, SRC (Homo sapiens, UniProt P12931); test: In vitro kinase activity assay (mobility shift assay), SRC; conditions: ATP 19 μM, reaction time 30 min
# T5 construct: purchased Carna 08-173
# T5 sequence (P12931 whole entry): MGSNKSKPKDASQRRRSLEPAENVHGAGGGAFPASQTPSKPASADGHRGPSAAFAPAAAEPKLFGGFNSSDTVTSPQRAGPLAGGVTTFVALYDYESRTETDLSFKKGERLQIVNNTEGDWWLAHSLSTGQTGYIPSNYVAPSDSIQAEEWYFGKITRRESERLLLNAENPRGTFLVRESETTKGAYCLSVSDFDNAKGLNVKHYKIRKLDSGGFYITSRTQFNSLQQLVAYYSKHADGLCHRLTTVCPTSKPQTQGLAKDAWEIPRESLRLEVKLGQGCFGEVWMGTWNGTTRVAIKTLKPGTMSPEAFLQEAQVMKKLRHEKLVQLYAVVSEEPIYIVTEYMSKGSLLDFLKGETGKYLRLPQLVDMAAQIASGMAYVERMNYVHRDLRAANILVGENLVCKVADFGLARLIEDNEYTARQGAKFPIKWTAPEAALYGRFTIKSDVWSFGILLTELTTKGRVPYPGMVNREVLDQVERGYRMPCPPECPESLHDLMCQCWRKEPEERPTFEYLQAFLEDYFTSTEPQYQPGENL
# Protocol: (§2) The IC50 (half inhibitory concentration) values of the compounds were used as an indicator to evaluate the inhibitory effect of the compound on RET wild-type, RET mutant, TRKa, SRC, BTK and/or mutated BTK kinase.
# (§3) Using the method of Mobility shift assay, the compounds were tested for inhibitory activity against the following kinases: RET wild type, RET mutant, TRKa, SRC, BTK and/or mutated BTK. The initial concentration of the test compound was 1000 nM, 3-fold dilution, 10 concentrations, detected in a well for each concentration.
# (§4) 20 mM hydroxyethylpiperazineethanesulfonic acid (Hepes) (pH 7.5) buffer, 10 mM MgCl2, 1 mM ethylene glycol bis(aminoethyl ether)tetraacetic acid (EGTA), 0.02% polyoxyethylene lauryl ether (Brij35), 0.02 mg/ml […] (BSA), 0.1 mM Na3VO4, 2 mM dithiothreitol (DTT), 1% DMSO.
# (§5) The test compounds were dissolved in 100% dimethyl sulfoxide (DMSO) system, and prepared as 10 mM for use, and stored in a nitrogen cabinet away from light.
# (§6) • (1) Preparing 1× kinase reaction buffer. • (2) Preparation of compound concentration gradient: the initial concentration of the compounds was 1000 nM, which was diluted as 100-fold final concentration of solution in 100% dimethyl sulfoxide (DMSO) in a 384-well plate. The compound was accurately 3-fold diluted with the kinase buffer solution, 10 concentrations in total, and the final concentration was 0.0508 nM. The 100-fold final concentration of solution in 100% dimethyl sulfoxide (DMSO) was obtained by dilution in 384 source plate. The liquid separator Echo 550 was used to transfer 250 nl of 100-fold final concentration of compound to the target 384 well plate. 250 nl of DMSO was added to the positive and negative control wells. • (3) 2.5-fold final concentration of kinase solution was prepared by the 1× kinase buffer. • (4) 10 4, of 2.5-fold final concentration of kinase solution was added to the compound well and the positive control well, respectively; 10 4, of 1× kinase buffer was added to the negative control well. • (5) After centrifuging at 1000 rpm for 30 second, the reaction plate was shaken and mixed, followed by incubation at room temperature for 10 min. • (6) a mixed solution of 25/15-fold final concentration of adenosine triphosphate (ATP) and kinase substrate was prepared by 1× kinase buffer. • (7) The mixed solution (15 μL) of 25/15-fold final concentration of adenosine triphosphate (ATP) and substrate was added to initiate the reaction. • (8) 384-well plate was centrifuged at 1000 rpm for 30 second, shaken and mixed well, and then incubated at room temperature for 30-240 min. • (9) After stopping the kinase reaction, the plate was centrifugated at 1000 rpm for 30 second, shaken and mixed well. • (10)The conversion rate was read with Caliper EZ Reader.
# (§7) wherein Conversion%_sample is the conversion rate reading of the sample; Conversion%_min: the mean value of negative control wells, representing the conversion rate reading of wells without enzymes; Conversion%_max: the mean value of positive control wells, representing the conversion rate reading of wells without compound inhibition.
# (§8) The log value of concentration was taken as the X axis, and the percentage inhibition rate was taken as the Y axis. Graphpad 6.0 analysis software was used to fit the dose-response curve, so as to obtain the IC50 value of each compound on the enzyme activity
# BTK = biological target: T6, BTK (Homo sapiens, UniProt Q06187); test: In vitro kinase activity assay (mobility shift assay), BTK; conditions: ATP 71 μM, reaction time 30 min
# T6 construct: purchased Carna 08-180
# T6 sequence (Q06187 whole entry): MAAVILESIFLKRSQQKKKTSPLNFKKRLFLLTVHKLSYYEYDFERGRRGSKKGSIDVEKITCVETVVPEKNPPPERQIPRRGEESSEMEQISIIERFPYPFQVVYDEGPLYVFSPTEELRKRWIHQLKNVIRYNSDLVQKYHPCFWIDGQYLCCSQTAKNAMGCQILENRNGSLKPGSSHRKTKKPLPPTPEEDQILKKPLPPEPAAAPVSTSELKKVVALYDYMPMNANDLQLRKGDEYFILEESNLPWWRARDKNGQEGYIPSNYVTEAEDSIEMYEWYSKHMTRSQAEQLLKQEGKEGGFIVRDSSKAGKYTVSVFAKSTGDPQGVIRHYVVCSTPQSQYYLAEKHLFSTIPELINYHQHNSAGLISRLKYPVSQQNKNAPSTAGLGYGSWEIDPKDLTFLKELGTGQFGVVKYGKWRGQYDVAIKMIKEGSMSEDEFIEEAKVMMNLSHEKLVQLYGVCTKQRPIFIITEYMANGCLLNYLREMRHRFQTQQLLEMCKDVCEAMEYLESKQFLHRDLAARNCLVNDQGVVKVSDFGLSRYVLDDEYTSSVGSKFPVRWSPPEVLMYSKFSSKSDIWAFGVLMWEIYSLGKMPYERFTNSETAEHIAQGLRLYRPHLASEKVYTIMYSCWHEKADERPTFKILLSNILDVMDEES
# In short: as §1
# BTK C481S = biological target: T7, BTK C481S (Homo sapiens, UniProt Q06187, C481S); test: In vitro kinase activity assay (mobility shift assay), BTK C481S; conditions: ATP 90 μM, reaction time 30 min
# T7 construct: purchased Carna 08-547
# T7 sequence (Q06187 whole entry C481S): as the sequence (Q06187 whole entry) above, with C481S counted along it
# Protocol: as §2, §3, §4, §5, §6, §7, §8
# T1 sequence (P07949 29-1114): as the sequence (P07949 29-1114 G810R) above, with R782G counted along it
SMILES,IC50 (RET wt) [nM],IC50 (RET G810R) [nM],IC50 (RET V804M) [nM],IC50 (TRKa) [nM],IC50 (SRC) [nM],IC50 (BTK) [nM],IC50 (BTK C481S) [nM]
"C[C@H]1CNC(=O)c2cnn3cc(-c4ccc(Oc5ccccc5)cc4)c(nc23)NCc2cc(F)cnc2O1 [Compound 10, (S, 1^3E, 1^4E)-1^6-(4-phenoxyphenyl)-4^5-fluoro-6-methyl-5-oxa-2,8-diaza-1(5,3)-pyrazolo[1,5-a]pyrimidina-4(3,2)-pyridinacyclononaphan-9-one]",144,> 10000,> 10000,> 10000,> 10000,> 10000,> 10000
CC(=O)Nc1ccc(-c2cn3ncc4c3nc2NCc2cc(F)cnc2O[C@@H](C)CNC4=O)cc1 [Compound 18],> 10000,> 10000,> 10000,,> 10000,> 10000,> 10000
"C[C@H]1CNC(=O)c2cnn3cc(-c4ccccc4Cl)c(nc23)NCc2cc(F)cnc2O1 [Compound 4, (S, 1^3E, 1^4E)-1^6-(2-chlorophenyl)-4^5-fluoro-6-methyl-5-oxa-2,8-diaza-1(5,3)-pyrazolo[1,5-a]pyrimidina-4(3,2)-pyridinacyclononaphan-9-one]",2.2,21,161,294,0.096,3.39,9.84
"CNC(=O)c1ccc(-c2cn3ncc4c3nc2NCc2cc(F)cnc2O[C@@H](C)CNC4=O)cc1 [Compound 19, 4-((S, 1^3E, 1^4E)-4^5-fluoro-6-methyl-9-oxo-5-oxa-2,8-diaza-1(5,3)-pyrazolo[1,5-a]pyrimidin-4(3,2)-pyridinacyclononaphan-1^6-yl)—N-methylbenz amide]",48.9,> 10000,> 10000,,> 10000,> 10000,> 10000

# The remaining lines, values ahead:
IC50 (RET wt) [nM],IC50 (RET G810R) [nM],IC50 (RET V804M) [nM],IC50 (TRKa) [nM],IC50 (SRC) [nM],IC50 (BTK) [nM],IC50 (BTK C481S) [nM],SMILES
0.629,17.2,3.25,,38.4,15.4,16.9,COC(=O)Nc1ccc(-c2cn3ncc4c3nc2NCc2cc(F)cnc2O[C@@H](C)CNC4=O)c(Cl)c1 [Compound 27]
0.359,12,9.18,,0.456,1.11,0.96,"C[C@H]1CNC(=O)c2cnn3c(N)c(-c4ccccc4)c(nc23)NCc2cc(F)cnc2O1 [Compound 28, (S, 1^3E, 1^4E)-1^7-amino-4^5-fluoro-6-methyl-1^6-phenyl-5-oxa-2,8-diaza-1(5,3)-pyrazolino[1,5-a]pyrimidin-4(3,2)-pyridinacyclononaphan-9-one]"
11,42.1,> 10000,> 10000,10.8,33.5,31.3,"C[C@H]1CNC(=O)c2cnn3cc(-c4ccccc4)c(nc23)NCc2cc(F)cnc2O1 [Example 1, (S, 1^3E, 1^4E)-4^5-fluoro-6-methyl-1^6-phenyl-5-oxa-2,8-diaza-1(5,3)-pyrazolo[1,5-a]pyrimidina-4(3,2)-pyridinacyclononaphan-9-one]"
5.1,15.1,76,> 10000,3110,5180,,"COC(=O)Nc1ccc(-c2cn3ncc4c3nc2NCc2cc(F)cnc2O[C@@H](C)CNC4=O)cc1 [Compound 30, methyl (4-((S, 1^3E, 1^4E)-4^5-fluoro-6-methyl-9-oxo-5-oxa-2,8-diaza-1(5,3)-pyrazolo[1,5-a]pyrimidin-4(3,2)-pyridinacyclononaphan-1^6-yl)phenyl) carbamate]"
1.2,49.7,,,0.13,1.5,0.96,Cc1ccc(-c2c3nc4c(cnn4c2N)C(=O)NC[C@H](C)Oc2ncc(F)cc2CN3)cc1 [Example 56]
105,> 1000,> 1000,,2.1,48,104,"CNc1ccc(-c2c3nc4c(cnn4c2N)C(=O)NC[C@H](C)Oc2ncc(F)cc2CN3)cc1 [Example 54, (S, 1^3E, 1^4E)-1^7-amino-4^5-fluoro-6-methyl-1^6-(4-(methylamino)phenyl)-5-oxo-2,8-diaza-1(5,3)-pyrazolo[1,5-a]pyrimidin-4(3,2)-pyridinacyclononaphan-9-one]"
